Read-outs that look alike come from different tables or passages of the source.
How the values were obtained:
Puccinia triticina = test: Fungicidal activity: wheat brown rust (PUCCRT), wheat seedlings, booth sprayer to run-off or track spray; type: in vivo; details: for pest or weed control at 100 ppm: High-Volume Cereal Activity at 100 ppm; for pest or weed control at 121.5 g/ha: Low-Volume Cereal Activity at 121.5 g/H
Method: All fungicides were evaluated using the aforementioned method for their activity vs. all target diseases. Wheat leaf blotch and brown rust activity were also evaluated using track spray applications, in which case the fungicides were formulated as EC formulations, containing 0.1% Trycol 5941 in the spray solutions. Wheat plants (variety Yuma) were grown from seed in a greenhouse in 50% mineral soil/50% soil-less Metro mix until the first leaf was fully emerged, with 7-10 seedlings per pot. These plants were inoculated with an aqueous spore suspension of Puccinia triticina either prior to or after fungicide treatments. […] The plants were then transferred to a greenhouse set at 24° C. for disease to develop. Fungicide formulation, application and disease assessment followed the procedures as described in the Example A.

Zymoseptoria tritici = test: Fungicidal activity: leaf blotch of wheat (SEPTTR), wheat seedlings, booth sprayer to run-off or track spray; type: in vivo; details: for pest or weed control at 100 ppm: High-Volume Cereal Activity at 100 ppm; for pest or weed control at 121.5 g/ha: Low-Volume Cereal Activity at 121.5 g/H
Method: All fungicides were evaluated using the aforementioned method for their activity vs. all target diseases. Wheat leaf blotch and brown rust activity were also evaluated using track spray applications, in which case the fungicides were formulated as EC formulations, containing 0.1% Trycol 5941 in the spray solutions. Wheat plants (variety Yuma) were grown from seed in a greenhouse in 50% mineral soil/50% soil-less Metro mix until the first leaf was fully emerged, with 7-10 seedlings per pot. These plants were inoculated with an aqueous spore suspension of Zymoseptoria tritici either prior to or after fungicide treatments. After inoculation the plants were kept in 100% relative humidity (one day in a dark dew chamber followed by two to three days in a lighted dew chamber at 20° C.) to permit spores to germinate and infect the leaf. The plants were then transferred to a greenhouse set at 20° C. for disease to develop. When disease symptoms were fully expressed on the 1st leaves of untreated plants, infection levels were assessed on a scale of 0 to 100 percent disease severity. Percent disease control was calculated using the ratio of disease severity on treated plants relative to untreated plants.

[1] = 24 h, 1 Day Protectant, read-out: PUCCRT 1DP
[2] = 24 h, 1 Day Protectant, read-out: SEPTTR 1DP
[3] = 3DC (Day Curative), read-out: SEPTTR 3DC
[4] = 3DC (Day Curative), read-out: PUCCRT 3DC
[5] = 72 h, 3 Day Curative, read-out: PUCCRT 3DC

Row | SMILES | pest or weed control at 100 ppm (Puccinia triticina; [1]) [%] | pest or weed control at 100 ppm (Zymoseptoria tritici; [3]) [%] | pest or weed control at 100 ppm (Puccinia triticina; [4]) [%] | also measured
1 | C=C[C@H](Cc1ccc(C(F)(F)F)cc1)[C@@H](Cc1ccc(F)cc1)[C@H](C)OC(=O)CNC(=O)c1nccc(OC)c1O [compound 109] | 0 to 80 | – | – | –
2 | CC[C@H](Cc1ccc(C(F)(F)F)cc1)[C@@H](Cc1ccc(F)cc1)[C@H](C)OC(=O)[C@H](COC)NC(=O)c1nccc(OC)c1O [compound 110] | 80 to 100 | – | – | –
3 | CC[C@H](Cc1ccccc1)[C@@H](Cc1ccc(OC(F)(F)F)cc1)[C@H](C)OC(=O)[C@H](C)NC(=O)c1nccc(OC)c1O [compound 112] | 0 to 80 | – | – | pest or weed control at 100 ppm (Zymoseptoria tritici; [2]): 0 to 80%
4 | CCC[C@@H](Cc1ccccc1)[C@H](C)OC(=O)[C@H](C)NC(=O)c1nccc(OC)c1O [compound 113] | 80 to 100 | 80 to 100 | 80 to 100 | pest or weed control at 100 ppm (Zymoseptoria tritici; [2]): 0 to 80%
5 | COC(=O)[C@@H](Cc1ccccc1)[C@H](C)OC(=O)[C@H](C)NC(=O)c1nccc(OC)c1O [compound 114] | 0 to 80 | 0 to 80 | 0 to 80 | –
6 | CCCC[C@@H]([C@H](C)OC(=O)[C@H](C)NC(=O)c1nccc(OC)c1O)[C@H](CC)Oc1ccccc1 [compound 115] | 80 to 100 | 80 to 100 | 80 to 100 | –
7 | CCCC[C@@H]([C@H](C)OC(=O)[C@H](C)NC(=O)c1nccc(OC)c1O)[C@@H](CC)Oc1ccccc1 [compound 116] | 0 to 80 | 0 to 80 | 80 to 100 | pest or weed control at 100 ppm (Zymoseptoria tritici; [2]): 0 to 80%
8 | CC[C@H](Oc1ccccc1)[C@@H](Cc1ccccc1)[C@H](C)OC(=O)[C@H](C)NC(=O)c1nccc(OC)c1O [compound 117] | 80 to 100 | 0 to 80 | 80 to 100 | pest or weed control at 100 ppm (Zymoseptoria tritici; [2]): 80 to 100%
9 | CC[C@@H](Oc1ccccc1)[C@@H](Cc1ccccc1)[C@H](C)OC(=O)[C@H](C)NC(=O)c1nccc(OC)c1O [compound 118] | 0 to 80 | 0 to 80 | 80 to 100 | pest or weed control at 100 ppm (Zymoseptoria tritici; [2]): 80 to 100%
10 | COc1ccnc(C(=O)N[C@@H](C)C(=O)O[C@@H](C)[C@H](Cc2ccccc2)c2ccccc2)c1O [compound 119] | – | 0 to 80 | – | –
11 | COc1ccnc(C(=O)N[C@@H](C)C(=O)O[C@@H](C)[C@H](Cc2ccccc2)C(C)C)c1O [compound 122] | 0 to 80 | – | – | –
12 | COc1cccc(CC(Cc2cccc(OC)c2)[C@H](C)OC(=O)[C@H](C)NC(=O)c2nccc(OC)c2O)c1 [compound 152] | 80 to 100 | – | 0 to 80 | –
13 | CCCOC[C@@H](Cc1ccccc1)[C@H](C)OC(=O)CNC(=O)c1nccc(OC)c1OC(C)=O [compound 176] | – | – | – | pest or weed control at 121.5 g/ha (Puccinia triticina; [1]): 80 to 100%; pest or weed control at 121.5 g/ha (Puccinia triticina; [5]): 0 to 80%
14 | CC[C@H](Cc1ccc(C(F)(F)F)cc1)[C@@H](Cc1ccc(F)cc1)[C@H](C)OC(=O)[C@H](C)NC(=O)c1nccc(OC)c1OC(C)=O [compound 182] | – | – | – | pest or weed control at 121.5 g/ha (Puccinia triticina; [1]): 0 to 80%; pest or weed control at 121.5 g/ha (Puccinia triticina; [5]): 0 to 80%
15 | CC[C@H](Cc1ccc(C(F)(F)F)cc1)[C@@H](Cc1ccc(F)cc1)[C@H](C)OC(=O)CNC(=O)c1nccc(OC)c1OC(C)=O [compound 183] | – | – | – | pest or weed control at 121.5 g/ha (Puccinia triticina; [1]): 0 to 80%
16 | COC(=O)[C@@H](Cc1ccccc1)[C@H](C)OC(=O)[C@H](C)NC(=O)c1nccc(OC)c1OC(C)=O [compound 186] | – | – | – | pest or weed control at 121.5 g/ha (Zymoseptoria tritici; [2]): 0 to 80%
17 | COc1ccnc(C(=O)N[C@@H](C)C(=O)O[C@@H](C)[C@H](Cc2ccc(Cl)c(Cl)c2)c2ccccc2)c1OC(=O)C(C)C [compound 217] | – | – | – | pest or weed control at 121.5 g/ha (Zymoseptoria tritici; [2]): 0 to 80%; pest or weed control at 121.5 g/ha (Zymoseptoria tritici; 72 h, 3 Day Curative, read-out: SEPTTR 3DC): 0 to 80%
18 | CCCOC[C@@H](Cc1ccc(OC)cc1)[C@H](C)OC(=O)[C@H](C)NC(=O)c1nccc(OC)c1OCOC(C)=O [compound 256] | – | – | – | pest or weed control at 121.5 g/ha (Puccinia triticina; [1]): 80 to 100%; pest or weed control at 121.5 g/ha (Puccinia triticina; [5]): 80 to 100%

— patent publication US10173971B2, “Picolinamides with fungicidal activity” (DOW AGROSCIENCES LLC, priority 2014, dated 2019)
